This is an account of results in patent US20200306244A1, “WNT INHIBITORS FOR USE IN THE TREATMENT OF FIBROSIS” (NOVARTIS AG, priority 2016, published 2020).

For data set [1], the system named is primary kidney fibroblasts. The following applies: Madan et al. 2016; cited from earlier work.
The subject of data set [2] is bleomycin-induced skin fibrosis. Kind of data set: Bleomycin-induced mouse skin fibrosis model, 3 weeks bleomycin then 3 weeks treatment. It counts as in vivo, mouse (female C57/BI6). To be noted: for dermal skin thickness: FIG. 1B. The protocol:
In the bleomycin model (FIG. 1 (A-E) and FIG. 2 (A-B)), fibrosis was induced in 6-week-old female C57/BI6 mice (Charles River, Sulzfeld, Germany) by injection of 100 μL 0.5 mg/ml bleomycin into a defined skin area of 1 cm' between the shoulders at the back every other day for up to six weeks. Control mice were injected with 0.9% NaCl, the solvent of bleomycin. Another group of mice received bleomycin injections for 3 weeks followed by saline (NaCl) injections for the next 3 weeks to control for spontaneous regression of fibrosis. Animals were treated with or without compound of formula (I′) at multiple dose levels twice daily for indicated weeks using suspension formulation containing 0.5% methylcellulose and 0.5% tween 80. Each group of mice were killed and the skin sections analyzed.
(§1) The anti-fibrotic effects of compound of Formula (I′) on experimental skin fibrosis was evaluated by quantification of dermal or hypodermal thickening, respectively, analyses of myofibroblast counts and assessment of hydroxyproline content. Tissue samples were fixed in 10% phosphate-buffered formalin for 24 hours, then embedded in paraffin and cut into […] sections. The slides were stained with hematoxylin and eosin for better visualization of the tissue structure.
(§2) The hydroxyproline content was measured according to the method as described in hydroxyproline content (Woessner J. F. Arch. Biochem. Biophys. […], 93, 440-447).
(§3) The dermal thickness was analyzed with a microscope by measuring the maximal distance between the epidermal-dermal junction and the dermal-subcutaneous fat junction at 4 different skin sections in each mouse.
(§4) For quantification of myofibroblasts, skin sections were deparaffinized and incubated with 5% bovine serum albumin for 60 minutes. Cells positive for α-smooth muscle actin (α-SMA) were detected by incubation with monoclonal anti-α-SMA antibodies (clone 1A4; Sigma-Aldrich, Steinheim, Germany) for 2 hours at room temperature followed by incubation with 3% hydrogen peroxide for 10 minutes. […] antibodies labeled with horseradish peroxidase were used as secondary antibodies. The expression of α-SMA was visualized with 3,3′-diaminobenzidine tetrahydrochloride. Monoclonal mouse IgG antibodies were used as controls
Porcupine Inhibitor Compound of Formula (I′) in the Bleomycin-Induced Mouse Fibrosis Model To test compound of formula (I′) for anti-fibrotic effects, bleomycin was injected in 6-week-old female C57/BI6 mice for 3 weeks to induce fibrosis (FIG. 1A). The control group was injected with saline. The bleomycin treated animals were further dosed with or without compound of formula (I′) b.i.d. for another 3 weeks. […] Similar observations have been obtained when examining the hydroxyproline content and myofibroblast count of mouse skin samples as shown in FIG. 1C and FIG. 1D.

The nature of data set [3]: Plasma exposure after last oral dose in bleomycin model (C57/BI6). It counts as in vivo, mouse (female C57/BI6). To be noted: FIG. 1E. How it is done:
(§5) The plasma concentrations of compound of formula (I′) were determined by a liquid chromatography-tandem mass spectrometry (LC/MS/MS) assay. Briefly, mouse plasma samples were extracted with a methanol-acetonitrile mixture (3:1, v/v). Supernatant was injected onto HPLC system with a Waters Atlantis T3 analytical column (2.1×30 mm, 3.5 μm, Waters Corp., Milford, Mass., USA). The mobile phases consisted of 0.1% formic acid in water (solvent A) and 0.1% formic acid in acetonitrile (solvent B), and a gradient elution method (0-1.5 min, 10% B to 95% B; 1.5-2.0 min, 95% B; 2.01 min, 10% B) at flow rate of 800 μL/min was employed for chromatographic separation. Mass spectrometric analysis was performed on a SCIEX API-4000 triple quadruple mass spectrometer (Applied Biosystems, Foster City, Calif., USA) using atmospheric pressure chemical ionization (APCI) in the positive ion mode. Multiple reaction monitoring (MRM) of compound of formula (I′) and internal standard was used for quantitative measurements, and peak integration was performed using Analyst™ 1.4 software. The lower limit of detection for the assay was 1 ng/mL. Pharmacokinetic parameters were calculated by non-compartmental regression analysis using an in house fitting program.

In data set [4] the test system is bleomycin-induced skin fibrosis. Nature of the data set: Bleomycin mouse fibrosis model in Balb/C mice, skin thickness (FIG. 4). It counts as in vivo. How it is done:
To test compound of formula (I′) and compound of formula (I″) in a mouse fibrosis model, bleomycin was injected in Balb/C mice, with or without orally dosed compound of formula (I′) (5 mg/kg b.i.d.) and compound of formula (I″) (1 mg/kg b.i.d.) for 3 weeks. Skin tissue samples were taken at the end of the study and embedded in paraffin and skin thickness was measured (FIG. 4). Furthermore, the bleomycin treated animals were treated with or without orally dosed compound of formula (I′) at a dose of 5 mg/kg b.i.d. and compound of formula (I″) at a dose of 1 mg/kg b.i.d. for three weeks.

Data set [5] deals with Wnt pathway target gene Axin2 mRNA. Nature of the data set: Axin2 mRNA expression in skin tissue of bleomycin-treated Balb/C mice (qRT-PCR/TaqMan). The class given is in vivo, mouse (Balb/C). The following applies: 5 mg/kg b.i.d. oral 3 weeks, tissue 7 hour after last dose, Gapdh internal control; FIG. 2B. How it is done: Total RNA was isolated from tissue samples and processed to perform quantitative RT-PCR analysis of […] mRNA expression, with Gapdh serving as an internal control according to the manufacturer's instructions, as previously described.
Data were analyzed with SDS 2.0 software (Applied Biosystems), statistical analysis was conducted using PRISM.
In a separate study to confirm the on-target activity of compound of formula (I′) in a mouse fibrosis model, bleomycin was injected in Balb/C mice, with or without orally dosed compound of formula (I′) at 5 mg/kg b.i.d. for 3 weeks. Blood samples at multiple time points after the last dose were collected. […] Tissue samples were collected 7 hour after the last dose, and the Wnt pathway target gene Axin2 mRNA expression level was measured with qRT-PCR, with the housekeeping gene, Gapdh, as an internal control.
A general note: In qPCR the cycle at which signal appears reflects the starting amount.

Data set [6] can be described thus: PK analysis of blood samples after last dose in bleomycin-treated Balb/C mice. The class given is in vivo, mouse (Balb/C). To be noted: 5 mg/kg b.i.d. oral for 3 weeks; FIG. 2A. The protocol:
as §5, with “Mass spectrometric analysis was performed on a SCIEX API-4000 triple quadruple mass spectrometer (Applied Biosystems, Foster City, Calif., USA) using atmospheric pressure chemical ionization (APCI) in the positive ion mode.” left out, “The lower limit of detection for the assay was 1 ng/mL.” left out
In a separate study to confirm the on-target activity of compound of formula (I′) in a mouse fibrosis model, bleomycin was injected in Balb/C mice, with or without orally dosed compound of formula (I′) at 5 mg/kg b.i.d. for 3 weeks. […] Tissue samples were collected 7 hour after the last dose, and the Wnt pathway target gene Axin2 mRNA expression level was measured with qRT-PCR, with the housekeeping gene, Gapdh, as an internal control.

The test system of another data set is Tsk-1 mice fibrosis. Nature of the data set: Tight skin (Tsk-1) mouse genetic fibrosis model. The following applies: for skin thickness: FIG. 3B; for myofibroblast count: FIG. 3D; for anti-fibrotic effects: Tsk-1 model. It counts as in vivo, mouse (Tsk-1). The protocol: In the Tsk-1 model (FIG. 3(A-F)), treatment with compound of formula (I′) was started at the age of 5 weeks and was continued for 5 weeks. Animals were treated with or without compound of formula (I′) at multiple dose levels twice daily using suspension formulation containing 0.5% methylcellulose and 0.5% tween 80.
as §1, §2, §3
The Hypodermal thickness in TSK-1 mice was determined by measuring the thickness of the subcutaneous connective tissue beneath the panniculus carnosus at 4 different sites of the upper back in each mouse. The evaluation was performed by 2 independent examiners.
as §4
To further test the anti-fibrotic effects of compound of formula (I′), we turned to a mouse genetic fibrosis model, the tight skin model (Tsk-1). Tsk-1 mice contain a spontaneous duplication mutation of fibrillin-1 gene, which leads to activation of TGFβ signaling, and the subsequent fibrosis (increased in dermal and hypodermal thickness).
Five week old wild type or Tsk-1 mice were treated with or without compound of formula (I′) b.i.d. for 5 weeks (FIG. 3A).

The nature of data set [7]: Plasma exposure after last oral dose in Tsk-1 model. It counts as in vivo, mouse (Tsk-1). The following applies: FIG. 3E. How it is done: as §5, with “Mass spectrometric analysis was performed on a SCIEX API-4000 triple quadruple mass spectrometer (Applied Biosystems, Foster City, Calif., USA) using atmospheric pressure chemical ionization (APCI) in the positive ion mode.” left out, “The lower limit of detection for the assay was 1 ng/mL.” left out
Similar to that described for the bleomycin-induced mouse fibrosis model, plasma exposures of compound of formula (I′) in this tight skin model were also determined following the last oral dose, and PK data are shown in FIG. 3E.

The subject of the next data set is skin fibrosis markers. To be noted: clinical trial; Rice et al. 2015; cited from earlier work.
Where [8] appears, read: all dose levels (2.5, 5, 10 mg/kg) b.i.d. for 5 weeks.

`Cc1cc(-c2ccc(CC(=O)Nc3ccc(-c4cccnc4)cc3)cc2)ccn1` [C59]: the “TGFβ-induced Axing induction” value in [1] is “could abrogate TGFβ-induced Axing induction”.
`CC(=O)N1CCN(c2ccc(NC(=O)Cc3cnc(-c4ccnc(F)c4)c(C)c3)nc2)CC1` [compound of formula (I′), N-(5-(4-acetylpiperazin-1-yl)pyridin-2-yl)-2-(2′-fluoro-3-methyl-[2,4′-bipyridin]-5-yl)acetamide]: the dermal skin thickness entry in [2] (5 mg/kg and 10 mg/kg groups, oral b.i.d. 3 weeks) was “reduced the skin thickness to levels lower than the baseline”; in [2] (all dose levels (2.5, 5, 10 mg/kg) oral b.i.d. for 3 weeks after 3 weeks bleomycin), “reduced dermal skin thickness at all dose levels in a dose dependent manner”; in data set [4] (5 mg/kg b.i.d. oral for three weeks), “induce the reduction of dermal skin thickness”. The “fibrosis reversal (hydroxyproline content and myofibroblast count)” value in data set [2] (5 and 10 mg/kg groups) was “strong evidence of fibrosis reversal”. The hydroxyproline content entry in data set [2] (all dose levels (2.5, 5, 10 mg/kg) oral b.i.d., FIG. 1C) was “to levels lower than the baseline and closer to the control group”; in the data set on Tsk-1 mice fibrosis (all dose levels (2.5, 5, 10 mg/kg) b.i.d. for 5 weeks, FIG. 3C), “significant anti-fibrotic effects at all dose levels”. The myofibroblast count entry in data set [2] (all dose levels (2.5, 5, 10 mg/kg) oral b.i.d., FIG. 1D) was “to levels lower than the baseline and closer to the control group”; in the data set on Tsk-1 mice fibrosis (5 and 10 mg/kg groups), “reduction of the myofibroblast count towards control level”; with Tsk-1 mice fibrosis (setting [8]), “significant anti-fibrotic effects at all dose levels”. Further, the “absorption and oral exposure” value in data set [3] (after last oral dose, 2.5-10 mg/kg b.i.d.) was “highly absorbed and showed high oral exposures”. Further, the “plasma exposures, dose proportionality” value in data set [3] (from […] to 10 mg/kg) and in data set [7] (from […] to 10 mg/kg) was “increased approximately dose proportionally” throughout. Moreover, in data set [5], the “reduction of Axin2 mRNA expression” value turned out to be 54%. Moreover, in [6], the oral bioavailability result is reported as “good oral bioavailability”. The skin thickness entry was “reduced to levels lower than the baseline and closer to the control group” in the data set with Tsk-1 mice fibrosis (5 and 10 mg/kg groups); “significant anti-fibrotic effects at all dose levels” in the data set with Tsk-1 mice fibrosis (setting [8]). Also, the hypodermal skin thickness entry in the data set with Tsk-1 mice fibrosis (H&E staining of mouse skin samples, FIG. 3F) is given as “significantly reduced hypodermal skin thickness”. Further, the anti-fibrotic effects result in the data set on Tsk-1 mice fibrosis is listed as “robust anti-fibrotic effects”. For the same compound, the “plasma exposures compared with bleomycin model” value in data set [7] (after last oral dose) is recorded as “comparable between the two separate experiments”.
On to `Cc1cc(-c2ncc(CC(=O)Nc3ccc(-c4cnccn4)cn3)cc2C)ccn1` [compound of formula (I″), 2-(2′,3-dimethyl-[2,4′-bipyridin]-5-yl)-N-(5-(pyrazin-2-yl)pyridin-2-yl)acetamide], for which the dermal skin thickness result in data set [4] (1 mg/kg b.i.d. oral for three weeks) is recorded as “induce the reduction of dermal skin thickness”. For the same compound, in data set [4] (1 mg/kg b.i.d. vs 5 mg/kg b.i.d.), the “in vivo activity compared to compound of Formula (I′)” value was “showed even better in vivo activities”. Besides, the anti-fibrotic effects entry in the data set on Tsk-1 mice fibrosis was “robust anti-fibrotic effects”.
As for Fresolimumab: anti-TGFβ antibody, the skin fibrosis markers entry with skin fibrosis markers is reported as “Reduction of the skin fibrosis markers has been observed”.
